Source: ChEMBL document CHEMBL3507680, “University of Dundee, Gates Library screen for HepG2 cell viability”

Experiment: Human HepG2 cell viability assay in 384 well format
Assay type: toxicity, cell-based
Design: dose 125 nL, time 70.5 hour; concentration not given beside the values
Details: HepG2 cells, read-out: Inhibition

Compound	cytotoxicity at 70.5 h
Cc1nn(C)c2c(=O)n(CC(=O)NC3CCCCC3)ccc12	-1.28%
CCC(C)NC(=O)Cn1ccc2sc(C)cc2c1=O (stereo not given)	-0.388%
CN1CCCC1CCNC(=O)Nc1ccccc1 (stereo not given)	-5%
CC(=O)N1CC=C(n2c(=O)[nH]c3ccccc32)CC1	-5.58%
Cc1ccccc1CSc1ncccc1C(=O)N(C)C	-2.93%
COc1ccc(C(=O)Nc2cccc(C(N)=O)c2)c(OC)n1	9.82%
COc1ccc(C(=O)N(CCO)Cc2ccccc2)c(OC)n1	21.2%
CSc1ncccc1C(=O)NCc1ccc(N(C)C)cc1	40.2%
O=C(Nc1cccc2c1CCCC2)c1cccnc1N1CCCNCC1	-5.23%
CCC(CC)NC(=O)c1cccnc1N1CCCC1c1ccccn1 (stereo not given)	16.4%
CCCNc1ccc(C(=O)NCCc2cccc(Cl)c2)cn1	-4.77%
O=C(NC[C@@H]1CCCO1)c1cccnc1N1CCCC1c1ccccn1 (stereo not given in full)	-3.08%
O=C1CC2(CCN(C(=O)c3ccccn3)CC2)Oc2c(Cl)cc(Cl)cc21	-6.72%
COc1ccc2c(c1)OC1(CCN(Cc3ccc(C)cc3)CC1)CC2=O	7.29%
CN(C)C(=O)CN1CCC2(CC1)CC(=O)c1ccc3ccccc3c1O2	-6.26%
O=C(c1cccnc1SCc1ccccc1)N1CCOCC1	0.0391%
O=C(NCCCn1ccnc1)c1cccnc1OCC(F)(F)F	4.36%
CCCSc1ncccc1C(=O)NCc1ccc(S(N)(=O)=O)cc1	-4.05%
O=C(N[C@H]1CCCC[C@@H]1O)c1cccc(-c2nc3ccccc3[nH]2)c1	-2.51%
O=C(NC[C@H]1CCCC[C@H]1O)c1ccc2nc(-c3ccco3)[nH]c2c1	-1.94%
CCC(C)CNC(=O)[C@@H]1CCCN1c1nccc(Nc2ccccc2)n1 (stereo not given in full)	1.56%
CC(=O)N1N=C(c2ccccc2)OC1C(=O)NCCc1ccc(C)cc1 (stereo not given)	0.438%
Cc1cccc2cc(C(=O)N3CCN(S(=O)(=O)N(C)C)CC3)n(C)c12	1.01%

Compound	cytotoxicity at 70.5 h
CCc1nnc(CN2CCN(c3cccc(OC)c3)C(=O)C2)o1	12.1%
Cc1nc2ccccc2nc1CN1CCn2nc(CCC(=O)O)cc2C1	-7.38%
CCn1c(C2CCCN(Cc3cc(OC)cc(OC)c3)C2)nn(C)c1=O (stereo not given)	-4.68%
CCc1cc(N(C)Cc2cc[nH]n2)n2nc(C)c(C)c2n1	-4.44%
CCCc1nc(C(=O)N2CCn3nc(C(=O)OC)cc3C2)cs1	16.6%
CC(=O)N[C@@H]1CN(c2nc(C(N)=O)cs2)C[C@H]1c1ccc(C)o1	-15.3%
Cn1ccnc1CN(CCO)C(=O)C1CCN(C(=O)C2CC2)CC1	0.876%
Cc1[nH]c2c(C)ccc(C)c2c1CC(=O)NCC(O)c1cccnc1 (stereo not given)	-10.2%
CCc1cnc(N)nc1NCCCn1nc(C)nc1C	-9.39%
COCCN1CCN(C(=O)c2ccc(COC)o2)[C@H]2CS(=O)(=O)C[C@H]21	11.2%
CCNc1ccnc(NCC2(N(C)C)CCOCC2)n1	-5.81%
Cc1nccn1CC1CCCN(Cc2ccc(-c3cccnc3)cc2)C1 (stereo not given)	-9.2%
COc1ccc(OC)c(C2CCN(C3CCN(C(C)=O)CC3)C2)c1 (stereo not given)	2.82%
Cc1ccc(N2CCC(CCN3CCCC3=O)CC2)nn1	-22%
c1ccc(OCCCn2ccnc2-c2cn(C3CCNCC3)nn2)cc1	-4.27%
CN(C)C(Cn1ccnc1-c1ccccc1C(=O)O)c1ccccc1Cl (stereo not given)	10.5%
N#Cc1cccc(N2CCOC3(CNCCOC3)C2)n1 (stereo not given)	15.5%
COCc1nnc(C(=O)N2CCCC(O)C2)o1 (stereo not given)	-1.1%
CCc1cc(NCCCOC2CCN(C)CC2)ncn1	-15.3%
CN(C)CCNc1cc(-c2ncccc2Cl)c2cc[nH]c2n1	1.89%
O=C(C1CCCCO1)N1CCc2ncnc(NCc3ccon3)c2CC1 (stereo not given)	-9.14%
O=C(CC1COCCN1S(=O)(=O)c1ccccc1)NCc1ccccn1 (stereo not given)	-15.7%
Nc1nc2c(c(N3CCC(CN4CCCC4=O)CC3)n1)CCNCC2	-8.27%

Compound	cytotoxicity at 70.5 h
CC[C@H](C)Cn1nc(C2CCNCC2)n(Cc2ccccc2)c1=O	-2.63%
CNc1nc(C(=O)NCc2cccnc2N(C)C)cs1	1.65%
CCn1ncnc1CN1CCC(CNC(=O)c2cccc(C)n2)C1 (stereo not given)	-5.47%
CCc1noc(CN(CC)C(=O)CC2C(=O)NCCN2CC(C)(C)C)n1 (stereo not given)	0.786%
OCCn1ncc2c1CN(CC1CCOc3ccccc3C1)C2 (stereo not given)	-0.723%
Cc1nc(C)c(Cn2ccnc2-c2cc(CN(C)C)cs2)s1	2.87%
CCCN1CCc2[nH]cnc2C12CCN(C(=O)CCn1cccn1)CC2	-2.96%
Cn1cccc1-c1cc(C(=O)NCCc2nnc(N)s2)[nH]n1	4.96%
Cc1cccc(C)c1Oc1ncccc1CNC(=O)C1(C)CCCNC1 (stereo not given)	-7.62%
Cc1cc(C(=O)N2C[C@H]3CC[C@@H]2CN(Cc2ccccn2)C3)nc(N)n1	23.1%
CCCN(CC)C(=O)c1cc(Cn2c(C)nc3ccccc32)[nH]n1	-4.58%
Cc1cccnc1CC(C)N(C)C(=O)c1cccs1 (stereo not given)	-10.3%
CC(=O)Nc1ccc(Oc2ccc(CN3CCCC3)cc2F)cc1	-3.88%
O=C(NCc1cccnc1N1CCc2ccccc2C1)c1cnc[nH]1	-10.2%
O=C(CCCc1cn[nH]c1)N1C[C@@H](CN2CCCC2)C[C@H](CO)C1	-6.82%
CCCOC(C)C(=O)N1CCC(O)(c2ccc3nc(C)ccc3c2)CC1 (stereo not given)	-3.14%
Cc1ccc(-c2noc(CN3CC(n4cc(C)cn4)C3)n2)cc1	-0.527%
CCn1cnnc1C1CCN(C(=O)c2ccc(Cl)cc2OC)CC1	-9.75%
CCc1nccn1C1CCCN(C(=O)c2ccc3c(c2)nnn3C)C1 (stereo not given)	-5.62%
CC(C)c1cc(NC(=O)c2ccc([S+]([O-])C(C)C)cc2)[nH]n1 (stereo not given)	-3.24%
CC(C)c1cc(NC(=O)c2ccncc2)[nH]n1	2.62%
Cc1nc(C)n(CC2CCCN2Cc2ncc(C(C)(C)C)o2)n1 (stereo not given)	-4.1%
CCc1noc(CNc2ccc(C(=O)N3CCCC3)cc2C)n1	10.5%

Compound	cytotoxicity at 70.5 h
CCc1nccn1C1CCCN(C(=O)c2ccc(-n3ccnc3)cc2)C1 (stereo not given)	-10.5%
Cc1cnn(CC2CCCCN2Cc2ncc(C(C)(C)C)o2)c1 (stereo not given)	-7.03%
Cc1oc(C(=O)O)cc1S(=O)(=O)Nc1cc(Br)ccc1Cl	1.56%
CC(C)c1nn(C)c(N(C)C)c1CNC(C)c1ccccc1F (stereo not given)	-1.04%
CCn1cc(CN2CCCN(C(=O)CCN3CCCC3=O)CC2)cn1	-3.66%
CC1CCCN(Cc2ccc(OCc3nccn3C)cc2)C1 (stereo not given)	14.2%
Cc1ccc(-c2nc(C(=O)NCC3CCOC3)cs2)cc1 (stereo not given)	-15.2%
O=C(NCC1CCOC1)c1csc(-c2ccc(Cl)cc2)n1 (stereo not given)	-26.9%
O=C(NCC1CCOC1)c1csc(-c2ccc(F)cc2)n1 (stereo not given)	-6.03%
CCN(Cc1nc2c(cnn2C)c(=O)[nH]1)Cc1ccco1	-13.6%
Cc1ccc(CN(Cc2nc3c(cnn3C)c(=O)[nH]2)C2CC2)o1	-5.9%
CN(C)C(=O)CN1CCN(Cc2coc(-c3cccc(F)c3)n2)CC1	-11.2%
Cc1nccc(CNC(=O)CCc2c(C)nc3cc(O)nn3c2C)n1	-5.73%
CC(C)Cc1cc(NC(=O)c2cccnc2)n(C)n1	-9.43%
Cn1ccnc1COc1ccc(CN2CCC(C(N)=O)CC2)cc1	-11.1%
Cc1cnn(C2CCCN(C(=O)c3ccc(C(N)=O)cn3)C2)c1 (stereo not given)	3.91%
CNC(=O)CCNC(=O)CCc1c(C)nc2cc(O)nn2c1C	-4.97%
CCOc1ccc(Cl)c(C(=O)N2CCN(c3ccncc3)CC2)n1	-13.6%
O=C(c1ccc2c(c1)OCO2)N1CCC(Nc2cccnn2)CC1	9.12%
Cc1ccc(NC2CCN(C(=O)c3ccc4c(c3)CCC4)CC2)nn1	-0.715%
N#Cc1cccc(C(=O)N2CCC(Nc3cccnn3)CC2)c1	-19.9%
Cc1cccc(CNC(=O)CCc2c(C)nc3cc(O)nn3c2C)n1	-14%
Cc1oc(C(=O)O)cc1S(=O)(=O)Nc1ccccc1F	-11.3%

Compound	cytotoxicity at 70.5 h
Cc1oc(C(=O)O)cc1S(=O)(=O)Nc1cc(F)ccc1F	5.73%
Cc1ccsc1CNC(=O)CCc1c(C)nc2cc(O)nn2c1C	-10.8%
Cc1nc(CN2CCCN(c3nccs3)CC2)no1	10.6%
CCN(CC)CC(=O)N(C)C(c1cccc(F)c1)c1ccccn1 (stereo not given)	13.5%
Cc1ccc(NC2CCN(C(=O)c3sccc3C3CC3)CC2)nn1	-8.46%
COCCN1CCC(NCc2c(F)cccc2F)C1 (stereo not given)	-0.0127%
CC(C)c1noc(CN2CCCN(Cc3cccs3)CC2)n1	-25.6%
Cc1cc(C2CCCN(C(=O)CCc3cscn3)C2)n[nH]1 (stereo not given)	-19.6%
CSc1ccc(C(=O)N2CCOCC2c2c(C)nn(C)c2C)o1 (stereo not given)	-4.66%
Cc1cc(C(=O)N2CCCC(C)C2)ccc1NCC(=O)N1CCOCC1 (stereo not given)	-2.64%
O=C(Nc1cc(C(F)(F)F)c[nH]c1=O)N1CCSCC1	-8.45%
CC1CN(CCc2ccccn2)CCN1c1ccc2nncn2n1 (stereo not given)	-3.22%
Cn1cc(C(=O)Nc2cc(F)ccc2OCC2CCCO2)ccc1=O (stereo not given)	-7.6%
Cc1ccc(NC2CCN(C(=O)c3cscn3)CC2)nn1	0.539%
Cc1nnc2ccc(N3CCN(CCc4ccccn4)CC3)nn12	-0.337%
NC(=O)c1cc(C2CCCN(C(=O)CCc3ccncc3)C2)n[nH]1 (stereo not given)	-4.91%
Cc1nn(C)c(C)c1C1COCCN1C(=O)CCc1ccccc1 (stereo not given)	-1.71%
O=C(CCN1CCN(c2ccc3nncn3n2)CC1)N1CCCCC1	-5.89%
CCN(Cc1ccc2c(c1)OCO2)S(=O)(=O)N(C)C(C)C	-1.76%
CCN(CC)S(=O)(=O)N(C)Cc1ccc2c(c1)OCCO2	-2.26%
CCc1nnc(CN2CCCCC2Cn2cncn2)o1 (stereo not given)	10.6%
c1ccc(CCN2CCOC(CNc3cccnn3)C2)nc1 (stereo not given)	-12.5%
Cc1nc(C2CCCN(C(=O)CCCn3cccn3)C2)sc1C (stereo not given)	-15.3%
